Experimental findings from patent publication US20240366770A1, “DEGRADATION OF BRUTON'S TYROSINE KINASE (BTK) BY CONJUGATION OF BTK INHIBITORS WITH E3 LIGASE LIGAND AND METHODS OF USE” (BeiGene Switzerland GmbH, priority 2021, published 2024) are described below.

As a reminder, the DC50 is the concentration at which degradation of the target reaches its halfway point.

The structures appear in SMILES notation. Where two headings read alike, the source gives them in different places. Some results are limits rather than exact numbers.

For one assay, the target named is T1, BTK (Homo sapiens, UniProt Q06187).
T1 construct: High control=Cell group with added DMSO and without compound, indicating microplate readings without BTK degradation; endogenous in cells; host or cells: TMD-8
The assay is described as follows: BTK degradation in TMD-8 cells (HTRF assay). The note with it: 6 h treatment, IC50 (DC50) of BTK degradation. The class given is cell-based. Put shortly:
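TMD-8 cells were exposed for 6 h to 8 compound doses (6-fold serial dilution, 0.2% DMSO). Lysed cells were incubated overnight at room temperature with HTRF antibodies and read at 665/620 nm. DC50 came from four-parameter fitting of % inhibition versus concentration.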

In a further assay the test system is HEK-293 cells. The assay is described as follows: HEK-293 cytotoxicity detection (CellTiter-Glo). The following applies: HEK-293 cells, 72 h incubation, CellTiter-Glo luminescence, IC50 of cell proliferation inhibition, read-out: HEK293. The class given is cell-based. In a few lines: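 HEK-293 cells exposed 72 h to an 8-point, 4-fold dilution series (top 500× stock 5 mM in DMSO; 0.2% DMSO final). Viability by CellTiter-Glo luminescence after 10 min at room temperature; IC50 from four-parameter Hill fit of percent inhibition.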
(In general: ATP-based viability assays read luminescence as a measure of living cells.)

T1 sequence (Q06187 whole entry): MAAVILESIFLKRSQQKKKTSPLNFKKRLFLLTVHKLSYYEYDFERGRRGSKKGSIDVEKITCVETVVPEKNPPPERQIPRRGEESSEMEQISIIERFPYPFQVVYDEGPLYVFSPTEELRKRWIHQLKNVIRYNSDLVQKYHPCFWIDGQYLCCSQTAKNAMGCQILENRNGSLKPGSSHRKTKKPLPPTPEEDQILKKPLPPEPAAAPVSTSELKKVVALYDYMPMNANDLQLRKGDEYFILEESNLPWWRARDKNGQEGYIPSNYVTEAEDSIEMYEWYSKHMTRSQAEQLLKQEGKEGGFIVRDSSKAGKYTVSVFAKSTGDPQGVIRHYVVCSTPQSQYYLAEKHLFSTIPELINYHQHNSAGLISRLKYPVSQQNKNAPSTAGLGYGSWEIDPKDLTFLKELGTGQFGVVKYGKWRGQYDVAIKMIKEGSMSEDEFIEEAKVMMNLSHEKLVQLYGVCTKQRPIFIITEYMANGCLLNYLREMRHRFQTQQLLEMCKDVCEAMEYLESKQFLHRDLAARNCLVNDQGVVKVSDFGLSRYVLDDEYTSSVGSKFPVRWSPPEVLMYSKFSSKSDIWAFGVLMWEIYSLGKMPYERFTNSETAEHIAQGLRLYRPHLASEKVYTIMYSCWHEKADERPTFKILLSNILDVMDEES

Turning to `Cc1cc(-c2ncnc3[nH]c4cc(C5CCN(CC6CCN(c7ccc(N8CCC(=O)NC8=O)cc7)CC6)CC5)ccc4c23)ccc1[C@@H](C)NC(=O)c1nc(C(C)(C)C)no1` [Example 5, (R)-3-(tert-butyl)-N-(1-(4-(7-(1-((1-(4-(2,4-dioxotetrahydropyrimidin-1(2H)-yl)phenyl)piperidin-4-yl)methyl)piperidin-4-yl)-9H-pyrimido[4,5-b]indol-4-yl)-2-methylphenyl)ethyl)-1,2,4-oxadiazole-5-carboxamide], the DC50 on BTK was 0.731 nM. The IC50 in the assay on HEK-293 cells (Homo sapiens) was 3250 nM.
With `Cc1cc(-c2ncnc3[nH]c4cc(N5CCN(CCc6ccc(N7CCC(=O)NC7=O)c(C)c6)CC5)ccc4c23)ccc1[C@@H](C)NC(=O)c1nc(C(C)(C)C)no1` [Example 17, (R)-3-(tert-butyl)-N-(1-(4-(7-(4-(4-(2,4-dioxotetrahydropyrimidin-1(2H)-yl)-3-methylphenethyl)piperazin-1-yl)-9H-pyrimido[4,5-b]indol-4-yl)-2-methylphenyl)ethyl)-1,2,4-oxadiazole-5-carboxamide], half-maximal degradation on BTK (DC50) was put at 0.341 nM. Moreover, the IC50 with HEK-293 cells (Homo sapiens) is over 10000 nM.
Turning to `Cc1cc(-c2ncnc3[nH]c4cc(N5CCN(C6CC(c7ccc(C8CCC(=O)NC8=O)cc7)C6)CC5)ccc4c23)ccc1[C@@H](C)NC(=O)c1nc(C(C)(C)C)no1` (stereo partly drawn) [Example 15, 3-(tert-butyl)-N-((1R)-1-(4-(7-(4-(3-(4-(2,6-dioxopiperidin-3-yl)phenyl)cyclobutyl)piperazin-1-yl)-9H-pyrimido[4,5-b]indol-4-yl)-2-methylphenyl)ethyl)-1,2,4-oxadiazole-5-carboxamide], on BTK, the DC50 worked out at 0.616 nM. Also, the IC50 in the assay on HEK-293 cells (Homo sapiens) was over 10000 nM.
For the compound `Cc1cc(-c2ncnc3[nH]c4cc(N5CCC6(CC5)CCN([C@H]5C[C@H](c7ccc([C@H]8CCC(=O)NC8=O)cc7)C5)CC6)ccc4c23)ccc1[C@@H](C)NC(=O)c1nc(C(C)(C)C)no1` [Example 112, 3-(tert-butyl)-N—((R)-1-(4-(7-(9-((1R,3r)-3-(4-((R)-2,6-dioxopiperidin-3-yl)phenyl)cyclobutyl)-3,9-diazaspiro[5.5]undecan-3-yl)-9H-pyrimido[4,5-b]indol-4-yl)-2-methylphenyl)ethyl)-1,2,4-oxadiazole-5-carboxamide], on BTK, half-maximal degradation (DC50) was put at 2.47 nM. In addition, in the assay on HEK-293 cells (Homo sapiens), the IC50 worked out at 1890 nM.
Consider `COc1cc2c(cc1N1CCN(Cc3ccc(SC4CCC(=O)NC4=O)cc3)CC1)[nH]c1ncnc(-c3ccc([C@@H](C)NC(=O)c4nc(C5(C)CC5)no4)c(C)c3)c12` (stereo partly drawn) [Example 77, N-((1R)-1-(4-(7-(4-(4-((2,6-dioxopiperidin-3-yl)thio)benzyl)piperazin-1-yl)-6-methoxy-9H-pyrimido[4,5-b]indol-4-yl)-2-methylphenyl)ethyl)-3-(1-methylcyclopropyl)-1,2,4-oxadiazole-5-carboxamide], for which it took 8.48 nM to reach half-maximal degradation on BTK (DC50). For the same compound, the IC50 with HEK-293 cells (Homo sapiens) was over 10000 nM.
With `COc1cc2c(cc1N1CCN(C3CC(c4ccc(N[C@H]5CCC(=O)NC5=O)cc4)C3)CC1)[nH]c1ncnc(-c3cc(C)c([C@@H](C)NC(=O)c4nc(C5(C)CC5)no4)cc3F)c12` (stereo partly drawn) [Example 94, N—((R)-1-(4-(7-(4-((1S,3s)-3-(4-(((R)-2,6-dioxopiperidin-3-yl)amino)phenyl)cyclobutyl)piperazin-1-yl)-6-methoxy-9H-pyrimido[4,5-b]indol-4-yl)-5-fluoro-2-methylphenyl)ethyl)-3-(1-methylcyclopropyl)-1,2,4-oxadiazole-5-carboxamide], the DC50 on BTK is 0.768 nM. For the same compound, the IC50 in the assay on HEK-293 cells stood at 420 nM.
`Cc1cc(-c2ncnc3[nH]c4cc(N5CCN(C6CN(C7CN(c8ccc9c(c8)C(=O)N(C8CCC(=O)NC8=O)C9=O)C7)C6)CC5)ccc4c23)ccc1[C@@H](C)NC(=O)c1nc(C2(C)CC2)no1` (stereo partly drawn) [Example 121, N-((1R)-1-(4-(7-(4-(1′-(2-(2,6-dioxopiperidin-3-yl)-1,3-dioxoisoindolin-5-yl)-[1,3′-biazetidin]-3-yl)piperazin-1-yl)-9H-pyrimido[4,5-b]indol-4-yl)-2-methylphenyl)ethyl)-3-(1-methylcyclopropyl)-1,2,4-oxadiazole-5-carboxamide] gave a DC50 on BTK of 1.58 nM. Also, the IC50 with HEK-293 cells (Homo sapiens) is over 10000 nM.
At BTK, `Cc1c([C@@H](C)NC(=O)c2noc(C(C)(C)C)n2)ccc(-c2ncnc3[nH]c4cc(N5CCN(Cc6ccc7c(c6)n(C6CCC(=O)NC6=O)c(=O)n7C)CC5)ccc4c23)c1F` (stereo partly drawn) [Example 78, 5-(tert-butyl)-N-((1R)-1-(4-(7-(4-((3-(2,6-dioxopiperidin-3-yl)-1-methyl-2-oxo-2,3-dihydro-1H-benzo[d]imidazol-5-yl)methyl)piperazin-1-yl)-9H-pyrimido[4,5-b]indol-4-yl)-3-fluoro-2-methylphenyl)ethyl)-1,2,4-oxadiazole-3-carboxamide] gave a half-maximal degradation concentration (DC50) of over 2000 nM. Moreover, the IC50 in the assay with HEK-293 cells (Homo sapiens) was over 10000 nM.
On BTK, `Cc1c([C@@H](C)NC(=O)c2nc(C3(C)CC3)no2)ccc(-c2ncnc3[nH]c4cc(N5CCN(C6CC(c7ccc([C@@H]8CCC(=O)NC8=O)cc7)C6)CC5)ccc4c23)c1F` (stereo partly drawn) [Example 65, N—((R)-1-(4-(7-(4-(3-(4-((S)-2,6-dioxopiperidin-3-yl)phenyl)cyclobutyl)piperazin-1-yl)-9H-pyrimido[4,5-b]indol-4-yl)-3-fluoro-2-methylphenyl)ethyl)-3-(1-methylcyclopropyl)-1,2,4-oxadiazole-5-carboxamide] displayed a DC50 of 4.24 nM. Also, the IC50 with HEK-293 cells (Homo sapiens) is over 10000 nM.
For the compound `COc1cc2c(cc1N1CCN(Cc3ccc4c(c3)C(C)(C)C(=O)N4C3CCC(=O)NC3=O)CC1)[nH]c1ncnc(-c3ccc([C@@H](C)NC(=O)c4nc(C5(C)CC5)no4)c(C)c3)c12` (stereo partly drawn) [Example 74, N-((1R)-1-(4-(7-(4-((1-(2,6-dioxopiperidin-3-yl)-3,3-dimethyl-2-oxoindolin-5-yl)methyl)piperazin-1-yl)-6-methoxy-9H-pyrimido[4,5-b]indol-4-yl)-2-methylphenyl)ethyl)-3-(1-methylcyclopropyl)-1,2,4-oxadiazole-5-carboxamide], half-maximal degradation at BTK (DC50) was put at 2.04 nM. Besides, the IC50 with HEK-293 cells (Homo sapiens) was over 10000 nM.
Regarding `Cc1cc(-c2ncnc3[nH]c4cc(C5CCN(CC6CCN(c7ccc(N8CCC(=O)NC8=O)cc7)CC6)CC5)cnc4c23)ccc1[C@@H](C)NC(=O)c1nc(C(C)(C)C)no1` [Example 38, (R)-3-(tert-butyl)-N-(1-(4-(7-(1-((1-(4-(2,4-dioxotetrahydropyrimidin-1(2H)-yl)phenyl)piperidin-4-yl)methyl)piperidin-4-yl)-9H-pyrido[2′,3′:4,5]pyrrolo[2,3-d]pyrimidin-4-yl)-2-methylphenyl)ethyl)-1,2,4-oxadiazole-5-carboxamide], the DC50 on BTK stood at 0.395 nM. The IC50 with HEK-293 cells (Homo sapiens) worked out at 3460 nM.
Consider `Cc1c([C@@H](C)NC(=O)c2noc(C(C)(C)C)n2)ccc(-c2ncnc3[nH]c4cc(N5CCN(CC6CCN(Cc7ccc8c(c7)C(C)(C)C(=O)N8C7CCC(=O)NC7=O)CC6)CC5)ccc4c23)c1F` (stereo partly drawn) [Example 98, 5-(tert-butyl)-N-((1R)-1-(4-(7-(4-((1-((1-(2,6-dioxopiperidin-3-yl)-3,3-dimethyl-2-oxoindolin-5-yl)methyl)piperidin-4-yl)methyl)piperazin-1-yl)-9H-pyrimido[4,5-b]indol-4-yl)-3-fluoro-2-methylphenyl)ethyl)-1,2,4-oxadiazole-3-carboxamide], for which the DC50 at BTK was found to be 1.97 nM. In addition, the IC50 in the assay with HEK-293 cells (Homo sapiens) was 7280 nM.
Regarding `Cc1cc(-c2ncnc3[nH]c4cc(N5CCN(C6CC(c7ccc([C@@H]8CCC(=O)NC8=O)cc7)C6)CC5)ccc4c23)c(F)cc1[C@@H](C)NC(=O)c1nc(C(C)(C)C)no1` (stereo partly drawn) [Example 25, 3-(tert-butyl)-N—((R)-1-(4-(7-(4-(3-(4-((S)-2,6-dioxopiperidin-3-yl)phenyl)cyclobutyl)piperazin-1-yl)-9H-pyrimido[4,5-b]indol-4-yl)-5-fluoro-2-methylphenyl)ethyl)-1,2,4-oxadiazole-5-carboxamide], the DC50 on BTK is 0.872 nM. In addition, the IC50 in the assay on HEK-293 cells (Homo sapiens) is over 10000 nM.
On the same counts, the results for `Cc1cc(-c2ncnc3[nH]c4cc(C5CCN(CCCOc6ccc(NC7CCC(=O)NC7=O)cc6)CC5)ccc4c23)ccc1CNC(=O)c1nc(C(C)(C)C)no1` (centres unmarked) [Example 3, 3-(tert-butyl)-N-(4-(7-(1-(3-(4-((2,6-dioxopiperidin-3-yl)amino)phenoxy)propyl)piperidin-4-yl)-9H-pyrimido[4,5-b]indol-4-yl)-2-methylbenzyl)-1,2,4-oxadiazole-5-carboxamide] are 2.15 nM and over 10000 nM.
`Cc1c([C@@H](C)NC(=O)c2nc(C3(C)CC3)no2)ccc(-c2ncnc3[nH]c4cc(N5CCN(C6CC(c7ccc([C@H]8CCC(=O)NC8=O)cc7)C6)CC5)ccc4c23)c1F` (stereo partly drawn) [Example 66, N—((R)-1-(4-(7-(4-(3-(4-((R)-2,6-dioxopiperidin-3-yl)phenyl)cyclobutyl)piperazin-1-yl)-9H-pyrimido[4,5-b]indol-4-yl)-3-fluoro-2-methylphenyl)ethyl)-3-(1-methylcyclopropyl)-1,2,4-oxadiazole-5-carboxamide]: the DC50 on BTK was found to be 4.1 nM. Also, in the assay on HEK-293 cells (Homo sapiens), the IC50 was over 10000 nM.
With `Cc1cc(-c2ncnc3[nH]c4cc(N5CCN(CCc6cccc7c6C6(CC6)C(=O)N7C6CCC(=O)NC6=O)CC5)ccc4c23)ccc1[C@@H](C)NC(=O)c1nc(C2(C)CC2)no1` (stereo partly drawn) [Example 124, N-((1R)-1-(4-(7-(4-(2-(1′-(2,6-dioxopiperidin-3-yl)-2′-oxospiro[cyclopropane-1,3′-indolin]-4′-yl)ethyl)piperazin-1-yl)-9H-pyrimido[4,5-b]indol-4-yl)-2-methylphenyl)ethyl)-3-(1-methylcyclopropyl)-1,2,4-oxadiazole-5-carboxamide], the 50% degradation concentration (DC50) on BTK worked out at 0.838 nM. In addition, the IC50 with HEK-293 cells (Homo sapiens) is over 10000 nM.
